In ChEMBL document CHEMBL1165864, “Scavenging activity of aminoantipyrines against hydroxyl radical” (Eur J Med Chem, 2010):
Active and inactive are the calls of the source. No cut-off for these calls is given here.

Test: Antioxidant activity assessed as hydroxyl radical scavenging activity at 10 mM at pH 7 by fenton reaction
Assay type: functional

SMILES | Activity
CNc1c(C)n(C)n(-c2ccccc2)c1=O | Active
Cc1c(N)c(=O)n(-c2ccccc2)n1C | Active
Cc1c(N(C)C)c(=O)n(-c2ccccc2)n1C | Active
